Laboratory results: patent publication US20240124418A1 (BioTheryX, Inc., priority 2020, published 2024)

How the values were obtained:
TNF-α = test: Cell-based TNF-α inhibition assay (LPS-induced PBMCs, Meso Scale); details: PBMC, PBMCs pretreated 1 h, LPS 100 ng/mL 18-24 h, percentage of stimulated DMSO control; for inhibition at 0.1 µM: compound concentration 0.1 μM; for inhibition at 1 µM: compound concentration 1 μM
In short: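 Thawed primary PBMCs (200,000 cells/well, RPMI 1640 with 10% FBS) were pretreated with compound for 1 h, then stimulated with 100 ng/mL LPS for 18–24 h. Supernatant TNF-α was measured by Meso Scale, and activity was expressed as percent inhibition relative to the stimulated DMSO control.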

PDE4B = biological target: T1, PDE4B (Homo sapiens, UniProt Q07343); test: Protein degradation assay, western blot, PDE4B in A549 cells; format: cell-based; details: 24 h treatment, 'as high as about' = upper value for the group, read-out: PDE4B degradation relative to DMSO
T1 construct: endogenous in cells; host or cells: A549
T1 sequence (Q07343 whole entry): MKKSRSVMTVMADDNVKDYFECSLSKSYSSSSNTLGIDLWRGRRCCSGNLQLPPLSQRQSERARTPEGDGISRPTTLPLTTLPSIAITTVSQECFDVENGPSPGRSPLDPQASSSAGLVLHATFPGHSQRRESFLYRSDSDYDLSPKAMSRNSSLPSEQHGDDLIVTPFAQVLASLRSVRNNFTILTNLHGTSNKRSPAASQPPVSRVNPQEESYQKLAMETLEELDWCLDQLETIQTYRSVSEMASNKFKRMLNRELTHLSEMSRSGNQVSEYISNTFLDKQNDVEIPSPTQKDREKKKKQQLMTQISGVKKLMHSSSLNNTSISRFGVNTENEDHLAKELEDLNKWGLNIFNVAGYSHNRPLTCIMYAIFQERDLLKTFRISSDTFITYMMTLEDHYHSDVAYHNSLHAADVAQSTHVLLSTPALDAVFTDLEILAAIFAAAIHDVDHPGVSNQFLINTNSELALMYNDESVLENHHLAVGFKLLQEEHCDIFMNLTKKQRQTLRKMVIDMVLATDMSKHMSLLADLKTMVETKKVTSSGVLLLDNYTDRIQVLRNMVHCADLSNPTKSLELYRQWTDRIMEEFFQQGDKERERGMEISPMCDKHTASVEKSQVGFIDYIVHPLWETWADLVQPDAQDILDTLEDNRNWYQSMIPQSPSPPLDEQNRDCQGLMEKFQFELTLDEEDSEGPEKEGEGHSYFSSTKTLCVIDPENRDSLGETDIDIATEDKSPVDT
Protocol: (§1) Example B2. Protein Degradation Assay
(§2) A549 cells were grown in RPMI 1640 media supplemented with 10% fetal bovine serum, streptomycin, and penicillin. The cells were plated in 6-well plates at 300,000 cells/well in the growth media. After overnight incubation, the cells were treated with DMSO (control) or a compound at predetermined concentrations (e.g., 10 nM, 100 nM, 1 μM, 3 μM, or 10 μM) for 24 h at 37° C. under 5% CO2. Whole cell extracts were prepared using an immunoprecipitation (IP) lysis buffer. The cells were washed once in PBS, and the cell pellets were resuspended in the IP lysis buffer and incubated for 15 min on ice. Cells debris was removed by centrifugation and the cleared whole cell lysates were transferred to new tubes for further analysis.
(§3) For a western blot analysis, the whole cell protein extracts were separated on 4-12% SDS-polyacrylamide gels, transferred to nitrocellulose, and probed with primary antibodies. Membranes were subsequently washed and probed with IRDYE® secondary antibodies. The signals were detected using an ODYSSEY® Imaging System. The antibodies used in the assay included anti-PDE4B antibody; anti-PDE4D antibodies (top, bottom, and short isoform); β-actin mouse monoclonal antibody; IRDYE® 680RD goat anti-rabbit antibody; and IRDYE® 800CW goat anti-mouse antibody. The compounds provided herein are PDE4 protein degraders.

[1] = tested on: PDE4D, in particular, PDE4D short isoform; test: Protein degradation assay, western blot, PDE4D in A549 cells; format: cell-based; details: 24 h treatment, same conditions
Protocol: as §1, §2, §3

Dmax (PDE4B)	SMILES	inhibition at 0.1 µM (TNF-α)	inhibition at 1 µM (TNF-α)	PDE4D degradation (in words) [1]
≤ 70%	CCOc1cc([C@@H](CS(C)(=O)=O)N2C(=O)c3cccc(NC(=O)CCCc4ccc(CCNCc5ccc(OCc6scc7c6CN(C6CCC(=O)NC6=O)C7=O)cc5)cc4)c3C2=O)ccc1OC (stereo partly drawn) [Compound A42, 4-[4-(2-{[(4-{[5-(2,6-Dioxopiperidin-3-yl)-4-oxo-4H,5H,6H-thieno[3,4-c]pyrrol-1-yl]methoxy}phenyl)methyl]amino}ethyl)phenyl]-N-{2-[(1S)-1-(3-ethoxy-4-methoxyphenyl)-2-methanesulfonylethyl]-1,3-dioxo-2,3-dihydro-1H-isoindol-4-yl}butanamide]	≥ 60%	≥ 60%	
≤ 70%	CCOc1cc([C@@H](CS(C)(=O)=O)N2C(=O)c3cccc(NC(=O)CCCCCCCCCCNCc4ccc(OCc5scc6c5CN(C5CCC(=O)NC5=O)C6=O)cc4)c3C2=O)ccc1OC (stereo partly drawn) [Compound A43, 11-{[(4-{[5-(2,6-Dioxopiperidin-3-yl)-4-oxo-4H,5H,6H-thieno[3,4-c]pyrrol-1-yl]methoxy}phenyl)methyl]amino}-N-{2-[(1S)-1-(3-ethoxy-4-methoxyphenyl)-2-methanesulfonylethyl]-1,3-dioxo-2,3-dihydro-1H-isoindol-4-yl}undecanamide]	≥ 60%	≥ 60%	
≤ 70%	CCOc1cc([C@@H](CS(C)(=O)=O)N2C(=O)c3cccc(NCCCCCCCCCNCc4ccc(OCc5scc6c5CN(C5CCC(=O)NC5=O)C6=O)cc4)c3C2=O)ccc1OC (stereo partly drawn) [Compound A44, 4-[(9-{[(4-{[5-(2,6-Dioxopiperidin-3-yl)-4-oxo-4H,5H,6H-thieno[3,4-c]pyrrol-1-yl]methoxy}phenyl)methyl]amino}nonyl)amino]-2-[(1S)-1-(3-ethoxy-4-methoxyphenyl)-2-methanesulfonylethyl]-2,3-dihydro-1H-isoindole-1,3-dione]	≥ 60%	≥ 60%	
≤ 70%	O=C1CCC(N2Cc3c(cc(F)cc3C3CCN(CCCCCCCOc4cc(C(=O)Nc5c(Cl)cncc5Cl)ccc4OC(F)F)CC3)C2=O)C(=O)N1 (stereo not shown) [Compound B1, N-(3,5-Dichloropyridin-4-yl)-4-(difluoromethoxy)-3-((7-(4-(2-(2,6-dioxopiperidin-3-yl)-6-fluoro-1-oxoisoindolin-4-yl)piperidin-1-yl)heptyl)oxy)benzamide]	< 20%	< 20%	
≤ 70%	O=C1CCC(N2Cc3c(NCCCOCCOCCOCCOc4ccc(C(=O)Nc5c(Cl)cncc5Cl)cc4OCC4CC4)cccc3C2=O)C(=O)N1 (stereo not shown) [Compound B9, 3-(Cyclopropylmethoxy)-N-(3,5-dichloropyridin-4-yl)-4-(2-(2-(2-(3-((2-(2,6-dioxopiperidin-3-yl)-1-oxoisoindolin-4-yl)amino)propoxy)ethoxy)ethoxy)ethoxy)benzamide]	≥ 60%	≥ 60%	
≤ 70%	O=C1CCC(N2Cc3c(cc(F)cc3C3CCN(CCCCCCCOc4ccc(C(=O)Nc5c(Cl)cncc5Cl)cc4OCC4CC4)CC3)C2=O)C(=O)N1 (stereo not shown) [Compound B10, 3-(Cyclopropylmethoxy)-N-(3,5-dichloropyridin-4-yl)-4-((7-(4-(2-(2,6-dioxopiperidin-3-yl)-6-fluoro-1-oxoisoindolin-4-yl)piperidin-1-yl)heptyl)oxy)benzamide]	20 to 40%	≥ 60%	
≤ 70%	O=C1CCC(N2Cc3c(cc(F)cc3C3CCN(CCCOc4cc(C(=O)Nc5c(Cl)cncc5Cl)ccc4OC(F)F)CC3)C2=O)C(=O)N1 (stereo not shown) [Compound B11, N-(3,5-Dichloropyridin-4-yl)-4-(difluoromethoxy)-3-(3-(4-(2-(2,6-dioxopiperidin-3-yl)-6-fluoro-1-oxoisoindolin-4-yl)piperidin-1-yl)propoxy)benzamide]	≥ 60%	≥ 60%	
≤ 70%	O=C1CCC(N2C(=O)c3cccc(N4CCC(CCCCCCCOc5cc(C(=O)Nc6c(Cl)cncc6Cl)ccc5OC(F)F)CC4)c3C2=O)C(=O)N1 (stereo not shown) [Compound B14, N-(3,5-Dichloropyridin-4-yl)-4-(difluoromethoxy)-3-((7-(1-(2-(2,6-dioxo-piperidin-3-yl)-1,3-dioxoisoindolin-4-yl)piperidin-4-yl)heptyl)oxy)benzamide]	≥ 60%	≥ 60%	
≤ 70%	O=C1CCC(N2Cc3cc(C4CCN(CCOc5cc(C(=O)Nc6c(Cl)cncc6Cl)ccc5OC(F)F)CC4)c(F)cc3C2=O)C(=O)N1 (stereo not shown) [Compound B15, N-(3,5-Dichloropyridin-4-yl)-4-(difluoromethoxy)-3-(2-{4-[2-(2,6-dioxo-piperidin-3-yl)-6-fluoro-1-oxo-2,3-dihydro-1H-isoindol-5-yl]piperidin-1-yl}ethoxy)benzamide]	≥ 60%	≥ 60%	
≤ 70%	O=C1CCC(Nc2cccc(NC(=O)CN3CCN(CCOc4cc(C(=O)Nc5c(Cl)cncc5Cl)ccc4OC(F)F)CC3)c2)C(=O)N1 (stereo not shown) [Compound B24, N-(3,5-Dichloropyridin-4-yl)-4-(difluoromethoxy)-3-(2-(4-(2-((3-((2,6-dioxopiperidin-3-yl)amino)phenyl)amino)-2-oxoethyl)piperazin-1-yl)ethoxy)benzamide]	≥ 60%	≥ 60%	
	CCOc1cc([C@@H](CS(C)(=O)=O)N2C(=O)c3cccc(NC(C)=O)c3C2=O)ccc1OC [apremilast]			did not degradate the PDE4D

SMILES	Dmax (PDE4B)	inhibition at 0.1 µM (TNF-α)	inhibition at 1 µM (TNF-α)	PDE4D degradation (in words) [1]
O=C1CCC(Nc2cccc(NC(=O)CN3CCN(CCCCOc4cc(C(=O)Nc5c(Cl)cncc5Cl)ccc4OC(F)F)CC3)c2)C(=O)N1 (stereo not shown) [Compound B25, N-(3,5-Dichloropyridin-4-yl)-4-(difluoromethoxy)-3-(4-(4-(2-((3-((2,6-dioxopiperidin-3-yl)amino)phenyl)amino)-2-oxoethyl)piperazin-1-yl)butoxy)benzamide]	≤ 70%	≥ 60%	≥ 60%	
